The values that follow come from patent US5753648A, “Tricyclic benzazepine vasopressin antagonists” (American Cyanamid Company, priority 1996, dated 1998).

Each structure is given as a SMILES string. pIC50: −log10 of the molar value. Where two headings read alike, the source gives them in different places.

What is called inhibition is the share of the control response that was lost under treatment. Read a low inhibition as a response near the control.

Assay [1] has as its system Endogenous Arginine Vasopressin Antidiuretic (V2) Response in Conscious Rats. In words: Antagonism of Endogenous Arginine Vasopressin Antidiuretic (V2) Response in Conscious Rats (urine volume). Conditions: 10 mg/kg rat p.o.; 4 hour collection. The format is in vivo, rat (Sprague-Dawley). From the text: Effects on the Antagonism of Endogenous Arginine Vasopressin Antidiuretic (V2) Response in Conscious Rats with Free Access to Water Drinking Before but not During the Experiment:
Male or female normotensive Sprague-Dawley rats (Charles River Laboratories, Inc., Kingston, N.Y.) of 400-450 g body weight were supplied with Laboratory Rodent Feed #5001 (PMI Feeds, Inc., Richmond, Id.) and water ad libitum. On the day of test, rats were placed individually into metabolic cages equipped with stainless steel screens (to separate the feces from the urine) and funnels for collection of urine. Vehicle or reference agent was given at various oral doses. During the test, rats were not provided with water or food. Urine was collected for four hours after dosing of the test compound. At the end of four hours, urine volume was measured. Urinary osmolality was determined using a Fiske One-Ten Osmometer (Fiske Associates, Norwood, Mass. 02062) or an Advanced CRYOMATIC Osmometer, Model 3C2 (Advanced Instruments, Norwood, Mass.). Determinations of Na^+, K^+ and Cl^- ion were carried out using ion specific electrodes in a Beckman SYNCHRON EL-ISE Electrolyte System analyzer. In the following results, increased urine volume and decreased osmolality relative to AVP-control indicates activity.

Assay [2] deals with T1, Human V2 Vasopressin Receptor (Homo sapiens, UniProt P30518).
T1 construct: expressed in transfected cells; host or cells: mouse fibroblast cell line LV-2
T1 sequence (P30518 whole entry): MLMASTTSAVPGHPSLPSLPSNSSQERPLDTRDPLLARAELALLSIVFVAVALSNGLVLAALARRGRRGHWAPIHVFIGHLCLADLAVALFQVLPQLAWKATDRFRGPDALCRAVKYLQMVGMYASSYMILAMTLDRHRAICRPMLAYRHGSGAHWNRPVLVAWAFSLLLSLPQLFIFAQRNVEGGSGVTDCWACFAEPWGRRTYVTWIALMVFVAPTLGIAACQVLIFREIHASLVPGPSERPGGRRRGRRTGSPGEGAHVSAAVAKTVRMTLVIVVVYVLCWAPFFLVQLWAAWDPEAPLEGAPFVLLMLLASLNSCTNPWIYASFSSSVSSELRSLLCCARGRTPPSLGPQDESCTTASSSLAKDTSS
In words: Binding to Membranes of Mouse Fibroblast Cell Line (LV-2) Transfected with the cDNA Expressing the Human V2 Vasopressin Receptor. The procedure: Binding to Membranes of Mouse Fibroblast Cell Line (LV-2) Transfected with the cDNA Expressing the Human V2 Vasopressin Receptor Membrane Preparation
Flasks of 175 ml capacity, containing attached cells grown to confluence, are cleared of culture medium by aspiration. The flasks containing the attached cells are rinsed with 2×5 ml of phosphate buffered saline (PBS) and the liquid aspirated off each time. Finally, 5 ml of an enzyme free dissociation Hank's based solution (Specialty Media, Inc., Lafayette, N.J.) is added and the flasks are left undisturbed for 2 min. The content of all flasks is poured into a centrifuge tube and the cells pelleted at 300×g for 15 min. The Hank's based solution is aspirated off and the cells homogenized with a polytron at setting #6 for 10 sec in 10.0 mM Tris.HCl buffer, pH 7.4 containing 0.25M sucrose and 1.0 mM EDTA. The homogenate is centrifuged at 1500×g for 10 min to remove ghost membranes. The supernatant fluid is centrifuged at 100,000×g for 60 min to pellet the receptor protein. Upon completion, the pellet is resuspended in a small volume of 50.0 mM Tris.HCl buffer, pH 7.4. The protein content is determined by the Lowry method and the receptor membranes are suspended in 50.0 mM Tris.HCl buffer containing 0.1 mM phenylmethylsulfonylfluoride (PMSF) and 0.2% bovine serum albumin (BSA) to give 2.5 mg receptor protein per ml of suspension.
For binding experiments, the following is added in μl volume to wells of a 96 well format of a microtiter plate: 100.0 μl of 100.0 mM Tris.HCl buffer containing 0.2% heat inactivated BSA, 10.0 mM MgCl2 and a mixture of protease inhibitors: leupeptin, 1.0 mg %; aprotinin, 1.0 mg %; 1,10-phenanthroline, 2.0 mg %; trypsin inhibitor, 10.0 mg % and 0.1 mM PMSF, 20.0 μl of [^3 H] Arginine^8, vasopressin (S.A. 75.0 Ci/mmole) at 0.8 nM and the reaction initiated by the addition of 80.0 μl of tissue membranes (200.0 μg tissue protein). The plates are left undisturbed on the bench top for 120 min to reach equilibrium. Non specific binding is assessed in the presence of 1.0 μm of unlabeled ligand, added in 20 μl volume. For test compounds, these are solubilized in 50% dimethylsulfoxide (DMSO) and added in 20.0 μl volume to a final incubation volume of 200 μl. Upon completion of binding, the content of each well is filtered off, using a Brandel® cell Harvester (Gaithersburg, Md.). The radioactivity trapped on the filter disk by the ligand-receptor complex is assessed by liquid scintillation counting in a Packard LS Counter, with an efficiency of 65% for tritium. The data are analyzed for IC50 values by the LUNDON-2 program for competition (LUNDON SOFTWARE, Ohio).

The target in the next assay is T2, oxytocin receptors (Rattus norvegicus, UniProt P70536).
T2 sequence (P70536 1-388): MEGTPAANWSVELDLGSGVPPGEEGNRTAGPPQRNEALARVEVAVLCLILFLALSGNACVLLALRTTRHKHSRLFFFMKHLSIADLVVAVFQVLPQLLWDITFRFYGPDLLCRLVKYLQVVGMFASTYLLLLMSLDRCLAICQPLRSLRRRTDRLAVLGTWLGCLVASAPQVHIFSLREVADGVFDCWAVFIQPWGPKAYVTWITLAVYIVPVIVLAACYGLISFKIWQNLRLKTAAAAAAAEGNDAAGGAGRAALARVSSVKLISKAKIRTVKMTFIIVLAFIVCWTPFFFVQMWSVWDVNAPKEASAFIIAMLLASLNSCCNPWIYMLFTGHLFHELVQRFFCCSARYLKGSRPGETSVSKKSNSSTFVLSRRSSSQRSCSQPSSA
Briefly: Oxytocin Receptor Binding.

The next assay addresses Rat Hepatic V1 Receptors (Rattus norvegicus, UniProt P30560). Briefly: Binding Assay to Rat Hepatic V1 Receptors. The procedure:
Binding Assay to Rat Hepatic V1 Receptors
Rat liver plasma membranes expressing the vasopressin V1 receptor subtypes are isolated by sucrose density gradient according to the method described by Lesko et al, (1973). These membranes are quickly suspended in 50.0 mM Tris.HCl buffer, pH 7.4, containing 0.2% bovine serum albumin (BSA) and 0.1 mM phenylmethylsulfonylfluoride (PMSF) and kept frozen at -70° C. until used in subsequent binding experiments. For binding experiments, the following is added to the wells of a ninety-six well format microtiter plate: 100 μl of 100.0 mM Tris.HCl buffer containing 10.0 mM MgCl2, 0.2% heat inactivated BSA and a mixture of protease inhibitors: leupeptin, 1.0 mg %; aprotinin, 1.0 mg %; 1,10-phenanthroline,2.0 mg %; trypsin inhibitor, 10.0 mg % and 0.1 mM PMSF, 20.0 μl of [phenylalanyl-3,4,5,-^3 H] vaso-pressin (S.A. 45.1 Ci/mmole) at 0.8 nM, and the reaction initiated by the addition of 80 μl of tissue membranes containing 20 μg of tissue protein. The plates are kept undisturbed on the bench top at room temperature for 120 min. to reach equilibrium. Non-specific samples are assayed in the presence of 0.1 μm of the unlabeled antagonist phenylalanylvasopressin, added in 20.0 μl volume. For test compounds, these are solubilized in 50% dimethylsulfoxide (DMSO) and added in 20.0 μl volume to a final incubation volume of 200 μl. Upon completion of binding, the content of each well is filtered off, using a Brandel® cell Harvester (Gaithersburg, Md.). The radioactivity trapped on the filter disk by the ligand-receptor complex is assessed by liquid scintillation counting in a Packard LS Counter, with an efficiency of 65% for tritium. The data are analyzed for IC50 values by the LUNDON-2 program for competition (LUNDON SOFTWARE, Ohio).

Assay [3] has as its target T3, Rat Kidney Medullary V2 Receptors (Rattus norvegicus, UniProt Q00788).
T3 construct: Medullary tissues from rat kidneys are dissected out; from tissue; host or cells: rat kidney medulla membranes
In words: biochemical. It is filed as binding.

Where [4] appears, read: LV-2 cells transfected with human V2 receptor cDNA, Table 5, read-out: Vasopressin Binding Human V2 Receptor.

Rat Hepatic V1 Receptors, sequence (P30560 whole entry): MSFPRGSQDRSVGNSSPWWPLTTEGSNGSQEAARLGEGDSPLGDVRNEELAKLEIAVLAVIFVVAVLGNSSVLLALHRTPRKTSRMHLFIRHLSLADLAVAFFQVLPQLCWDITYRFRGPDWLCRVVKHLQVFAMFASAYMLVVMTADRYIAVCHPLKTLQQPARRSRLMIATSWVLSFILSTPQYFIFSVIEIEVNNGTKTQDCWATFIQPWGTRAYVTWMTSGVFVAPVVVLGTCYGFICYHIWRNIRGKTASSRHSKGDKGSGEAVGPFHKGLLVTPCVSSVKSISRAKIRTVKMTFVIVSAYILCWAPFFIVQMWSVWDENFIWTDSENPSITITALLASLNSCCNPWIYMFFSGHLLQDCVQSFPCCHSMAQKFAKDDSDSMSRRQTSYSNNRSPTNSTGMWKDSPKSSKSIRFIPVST
T3 sequence (Q00788 whole entry): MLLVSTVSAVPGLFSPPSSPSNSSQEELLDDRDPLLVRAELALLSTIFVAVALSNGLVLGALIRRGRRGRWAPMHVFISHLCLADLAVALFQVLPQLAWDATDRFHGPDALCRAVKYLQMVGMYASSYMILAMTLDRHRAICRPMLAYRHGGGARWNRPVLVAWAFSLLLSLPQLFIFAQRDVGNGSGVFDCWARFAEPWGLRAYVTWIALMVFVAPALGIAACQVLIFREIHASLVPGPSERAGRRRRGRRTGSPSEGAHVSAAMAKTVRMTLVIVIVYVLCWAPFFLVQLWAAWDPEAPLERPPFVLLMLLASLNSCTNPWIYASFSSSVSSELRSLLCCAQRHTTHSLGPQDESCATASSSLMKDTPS

For `O=C(Nc1ccc(C(=O)N2Cc3cccn3Cc3ccccc32)c(Cl)c1)c1ccccc1-n1cccc1` [Example 377, N-[3-Chloro-4-(5H,11H-pyrrolo{2,1-c][1,4]benzodiazepine-10-carbonyl)-phenyl]-2-pyrrol-1-yl-benzamide], the “Urine Volume” value in assay [1] was 13.2 ml/4 hrs. Besides, in assay [2] (setting [4]), the pIC50 is 8.35.

In the case of `O=C(Nc1ccc(C(=O)N2Cc3ccc(CN4CCC(N5CCCCC5)CC4)n3Cc3ccccc32)c(Cl)c1)c1ccccc1-c1ccccc1` [Example 373, [4-(3-[1,4]Bipiperidinyl-1'-ylmethyl-5H,11H-pyrrolo[2,1-c][1,4]benzodiazepine-10-carbonyl)-3-chloro-phenyl]-biphenyl-2-carboxylic acid amide], the “Urine Volume” value in assay [1] is on record as 15.6 ml/4 hrs.

Turning to `CN(C)CCN(C)Cc1ccc2n1Cc1ccccc1N(C(=O)c1ccc(NC(=O)c3ccccc3-c3ccccc3)cc1Cl)C2` [Example 375], the “Urine Volume” value in assay [1] worked out at 44.2 ml/4 hrs.

`O=C(Nc1ccc(C(=O)N2Cc3cccn3Cc3ccccc32)c(Cl)c1)c1cccc2cccnc12` [Example 378, Ouinoline-8-carboxylic acid [4-(5H,11H-pyrrolo[2,1-c][1,4]benzodiazepine-10-carbonyl)-3-phenyl]-amide]: in assay [1], the “Urine Volume” value is 11.7 ml/4 hrs. In assay [2] (setting [4]), the pIC50 was 7.16.

In the case of `CN(C)Cc1ccc2n1Cc1ccccc1N(C(=O)c1ccc(NC(=O)c3ccccc3-c3ccccc3)cc1O)C2` [Example 372], the “Urine Volume” value in assay [1] stood at 30.3 ml/4 hrs. Further, the pIC50 in assay [2] (setting [4]) was 7.80.

For `O=C(Nc1ccc(C(=O)N2Cc3cccn3Cc3ccccc32)cn1)c1ccc(F)cc1Cl` [Example 9], the pIC50 in assay [2] (** LV-2 cells transfected with human V2 receptor cDNA, read-out: V2 IC50 (**human V2 receptor)) was 9.05; at oxytocin receptors (rat uterine membranes, [3H]oxytocin), 6.77; on Rat Hepatic V1 Receptors, 8.22; in assay [3] it was 8.96. Testing at 2.5 µM on oxytocin receptors (dose 2.5 μM) gave an inhibition of 96%.

As to `CN(C)Cc1ccc2n1Cc1ccccc1N(C(=O)c1ccc(NC(=O)C3=C(c4ccccc4)CCC3)cc1Cl)C2` [Example 379, [3-Chloro-4-(3-dimethylaminomethyl-5H,11H-pyrrolo[2,1-c][1,4]benzodiazepine-10-carbonyl)-phenyl]-2-phenylcyclopent-1-enecarboxylic acid amide], the “Urine Volume” value in assay [1] came out at 18.9 ml/4 hrs. Besides, the pIC50 in assay [2] (setting [4]) was 7.91.

For `O=C(Nc1ccc(C(=O)N2Cc3ccc(CNC(CO)(CO)CO)n3Cc3ccccc32)c(Cl)c1)c1ccccc1-c1ccccc1` [Example 374, (3-Chloro-4-{3-[(2-hydroxy-1,1-bis-hydroxymethylethylamino)-methyl]-5H,11H-pyrrolo[2,1-c][1,4]benzodiazepine-10-carbonyl}-phenyl)-biphenyl-2-carboxylic acid amide], in assay [1], the “Urine Volume” value came to 16.5 ml/4 hrs.

`CN(C)C1CCN(Cc2ccc3n2Cc2ccccc2N(C(=O)c2ccc(NC(=O)c4ccccc4-c4ccccc4)cc2Cl)C3)CC1` [Example 376, {3-chloro-4-[3-(4-dimethylamino-piperidine-1-ylmethyl)-5H,11H-pyrrolo[2,1-c][1,4]benzodiazepine-10-carbonyl]-phenyl}-biphenyl-2-carboxylic acid amide]: the “Urine Volume” value in assay [1] stood at 23.8 ml/4 hrs.
